Reference: patent US8796180B2, “Aminoquinazoline compounds for combating invertebrate pests” (BASF SE, priority 2009, dated 2014)

How the values were obtained:
Type in all cases: in vivo
[1] = test system: Colorado potato beetle (Leptinotarsa decemlineata, adult); experiment: Colorado potato beetle test on treated eggplant foliage (B.3); conditions: test concentration 300 ppm, assessed 4 days after treatment
Protocol: B.3 Colorado potato beetle (Leptinotarsa decemlineata, adult)
The active compounds were formulated in cyclohexanone as a 10,0000 ppm solution supplied in 1.3 ml ABgene® tubes. These tubes were inserted into an automated electrostatic sprayer equipped with an atomizing nozzle and they served as stock solutions for which lower dilutions were made in 50% acetone:50% water (v/v). A nonionic surfactant (Kinetic®) was included in the solution at a volume of 0.01% (v/v). Eggplants were grown 2 plants to a pot and were selected for treatment at the 1st true leaf stage. Test solutions were sprayed onto the foliage by an automated electrostatic plant sprayer equipped with an atomizing spray nozzle. The plants were dried in the sprayer fume hood and then removed from the sprayer. The treated foliage was then cut and removed from the pot and placed in a 5-inch Petri dish lined with moistened filter paper. Five beetle larvae were introduced into each Petri dish and the dish was covered by a Petri dish lid. Petri dishes were maintained in a growth room at 25° C. and 20-40% relative humidity for 4 days, avoiding direct exposure to fluorescent light (24 hour photoperiod) to prevent trapping of heat inside the dishes. Mortality and reduced feeding were assessed 4 days after treatment, compared to untreated control plants.

[2] = test system: Diamondback moth (Plutella xylostella); experiment: Diamondback moth leaf-dip test on Chinese cabbage (B.4); conditions: test concentration 500 ppm, dipped Chinese cabbage leaves, mortality recorded 24, 72 and 120 hours after treatment, read-out: mortality in comparison with untreated controls
Protocol: B.4 Diamondback moth (Plutella xylostella)
The active compound was dissolved at the desired concentration in a mixture of 1:1 (vol:vol) distilled water:acetone. The test solution was prepared at the day of use.
The activity against Plutella xylostella can be tested by the following experiments:
Leaves of Chinese cabbage were dipped in test solution and air-dried. Treated leaves were placed in petri dished lined with moist filter paper. Mortality was recorded 24, 72, and 120 hours after treatment.

[3] = test system: Mediterranean fruitfly (Ceratitis capitata); experiment: Mediterranean fruitfly insect diet microtiter test (B.9); conditions: 120 h, test concentration 800 ppm, egg and larval mortality on insect diet, 5 days
Protocol: B. 9 Mediterranean fruitfly (Ceratitis capitata)
(§1) For evaluating control of Mediterranean fruitfly (Ceratitis capitata) the test unit consisted of microtiter plates containing an insect diet and 50-80 C. capitata eggs. The compounds were formulated using a solution containing 75% v/v water and 25% v/v DMSO. Different concentrations of formulated compounds were sprayed onto the insect diet at 5 μl, using a custom built micro atomizer, at two replications. After application, microtiter plates were incubated at about 28±1° C. and about 80±5% relative humidity for 5 days. Egg and larval mortality was then visually assessed.

[4] = test system: Tobacco budworm (Heliothis virescens); experiment: Tobacco budworm insect diet microtiter test (B.10); conditions: 120 h, test concentration 800 ppm, egg and larval mortality on insect diet, 5 days
Protocol: B.10 Tobacco budworm (Heliothis virescens)
as §1, with “of tobacco budworm (Heliothis virescens)” for “of Mediterranean fruitfly (Ceratitis capitata)”, “unit consists” for “unit consisted”, “of 96-well-microtiter” for “of microtiter”, “and 15-25 H. virescens” for “and 50-80 C. capitata”, “at 10” for “at 5”

[5] = test system: Southern Armyworm (Spodoptera eridania, 2nd instar larvae); experiment: Southern Armyworm foliar spray test on lima bean plants (B.1); conditions: 96 h, assessed 4 days after treatment, read-out: mortality in comparison with untreated controls
Protocol: B.1 Southern Armyworm (Spodoptera eridania, 2nd instar larvae)
The active compounds were formulated in cyclohexanone as a 10,0000 ppm solution supplied in 1.3 ml ABgene® tubes. These tubes were inserted into an automated electrostatic sprayer equipped with an atomizing nozzle and they served as stock solutions for which lower dilutions were made in 50% acetone: 50% water (v/v). A nonionic surfactant (Kinetic®) was included in the solution at a volume of 0.01% (v/v). Lima bean plants (variety Sieva) were grown 2 plants to a pot and selected for treatment at the 1st true leaf stage. Test solutions were sprayed onto the foliage by an automated electrostatic plant sprayer equipped with an atomizing spray nozzle. The plants were dried in the sprayer fume hood and then removed from the sprayer. Each pot was placed into perforated plastic bags with a zip closure. Ten to 11 armyworm larvae were placed into the bag and the bags zipped closed. Test plants were maintained in a growth room at 25° C. and 20-40% relative humidity for 4 days, avoiding direct exposure to fluorescent light (24 hour photoperiod) to prevent trapping of heat inside the bags. Mortality and reduced feeding were assessed 4 days after treatment, compared to untreated control plants.

Row | SMILES | mortality in comparison with untreated controls [1] | mortality at 500 ppm [2] | mortality at 800 ppm [3] | mortality at 800 ppm [4] | mortality at 300 ppm [5]
1 | CCNc1nc(-c2ccc(F)cc2)nc2cc(C(F)(F)F)ccc12 [I-201] | at least 50% |  |  |  | 
2 | CCNc1nc(-c2ccc(C(F)(F)F)cc2)nc2cc(C(F)(F)F)ccc12 [I-209, [2-(4-Trifluoromethylphenyl)-7-trifluoromethyl-quinazolin-4-yl]ethylamine] |  | ≥ 50% | ≥ 50% | ≥ 50% | 
3 | CCNc1nc(-c2ccc(Cl)cc2)nc2cc(C(F)(F)F)ccc12 [I-99, [2-(4-Chloro-phenyl)-7-trifluoromethyl-quinazolin-4-yl]ethylamine] |  | ≥ 50% | ≥ 50% | ≥ 50% | ≥ 50%
